Results reported in US7560096B2, “Diagnostic procedures using direct injection of gaseous hyperpolarized 129Xe and associated systems and products” (Medi-Physics, Inc, priority 2000, dated 2009).
Read-outs that look alike come from different tables or passages of the source.

What was measured:
[1] = cited from earlier work
[2] = Solubilities of gases in water, plasma, blood and tissues; assay type: physicochemical
Description: The feasibility of gaseous ^129Xe injection, particularly for arterial injections, may appear problematic. For example, it is known that arterial injections of air can lead to an undesirable air embolus. Although with intravenous (IV) injection the introduction of air is less of a concern, great care is typically taken to avoid such occurrences. The injection of CO2 is successful because of its high solubility in blood and the body's unique ability to remove it. The solubility of CO2 in blood and plasma can be difficult to measure because it is chemically metabolized.
Nonetheless, it is believed that the solubility that is of primary interest for the discussion herein and that the CO2 metabolism can be disregarded for the purposes of this comparison.

[3] = Bubble dissipation model (Krogh's coefficient) for gas bubbles in blood
Description: To better understand bubble dissipation, one can model a string of contiguous bubbles as a cylinder to look at the diffusion of the gas out of the “cylinder” into the surrounding fluid to analyze how the bubble volume or radius decreases with time. Presser et al., in modeling a simulation as stated above, noted that the bubble radius “r” versus time can be represented by the equation: dr/dt=−KΔP/[rln(R/r)] where “K” is Krogh's coefficient (the product of solubility “S” and diffusion coefficient “D” of the gas in the surrounding fluid), “ΔP” is the pressure difference between gas in the bubbles and gas in the alveoli and “R” is the distance from the center of the bubbles to the inner edge of the adjacent alveoli.
That is, for comparative analysis, it is believed that one can evaluate the Krogh's coefficient (S×D) for Xe relative to air. The diffusion coefficient is substantially the same and can be cancelled out. For example, Xe in H2O is about 1.9×10^−5 cm^2/s while methane and water itself are at 2 and 2.3×10^−5 cm^2/s, respectively. Thus, solubility “S” becomes the important factor.

[4] = Relaxation of hyperpolarized gas on container surface materials (GE180 glass, high purity aluminum); assay type: physicochemical; settings: for ψ (relaxivity of GE180 glass for the gas): from T1 and A/V=3/R
Description: In order to calculate optimal capillary lengths, relaxivity values or estimates are needed. As a simple estimate, one can consider that an 180 cc spherical chamber of GE180 glass has a relaxation times of about 40 hr for ^3He and about 2 hr for ^129Xe. Knowing the relationship of “A/V=3/R” for a sphere, one can determine the relaxivity ψ of GE180 glass for both gases. The diffusion coefficients are noted for reference below.
The gas contacting surfaces of the injector head 300 can be formed of or coated with suitable materials to inhibit the depolarization of the gas as it travels therethrough. Examples of suitable materials include, but are not limited to, alumminosilicate glass, certain polymer materials or metallic materials or other materials as described herein. Surface coatings, such as a sputter coating of a non-depolarizing material of high purity silver or aluminum. The relaxivity of high purity aluminum for ^129Xe has been recently measured to be about 0.00225 cm/min. Metals other than aluminum which can be used include indium, gold, zinc, tin, copper, bismuth, silver, niobium, and oxides thereof. Preferably, “high purity” metals are employed (i.e., metals which are substantially free of paramagnetic or ferrous impurities) because even minute amounts of undesirable materials or contaminants may degrade the surface. Preferably, the metal is chosen such that it is well below 1 ppm in ferrous or paramagnetic impurity content.

[5] = noted for reference; cited from earlier work
[6] = cited from earlier work; remark: listed apart in the source
[7] = inhalation, breath-hold; cited from earlier work
[8] = NMR spectra after polarized 129Xe gas injection into the vein of a rabbit; assay type: in vivo
Description: The signal strength at 8 seconds (FIG. 10P) being about 0.65 that of the original signal (FIG. 10A).
The rabbit survived the experiment. […] The signal strength at 8 seconds (FIG. 10P) being about 0.65 that of the original signal (FIG. 10A). The rabbit was placed in a whole body imager so that the exact location of the signal within the rabbit's body is not disclosed in the spectra. It is noted that a large quantity of the injected gas remained in the gas phase upon injection, most likely due to the size of the lumen used, about 0.5 mm.

[9] = Relaxation time (T1) of polarized 129Xe in blood and lung; assay type: physicochemical, human
Description: Further, the hyperpolarized state of the gas is sensitive and can decay relatively quickly due to a number of relaxation mechanisms. Indeed, the relaxation time (generally represented by a decay constant “T1”) of the ^129Xe in the blood, absent other external depolarizing factors, is estimated at T1=4.0 seconds for venous blood and T1=6.4 s for arterial blood at a magnetic field strength of about 1.5 Tesla. See Wolber et al., Spin-lattice relaxation of laser-polarized xenon in human blood, 96 Proc. Natl. Acad. Sci. USA, pp. 3664-3669 (March 1999). (The more oxygenated arterial blood provides increased polarization life over the relatively de-oxygenated venous blood). Therefore, for about a 5 second transit time (the time estimate for the uptaken hyperpolarized ^129Xe to travel to the brain from the pulmonary vessels), the ^129Xe polarization is reduced to about 37% of its original value. In addition, the relaxation time of the polarized ^129Xe in the lung itself is typically about 20-25 seconds due to the presence of paramagnetic oxygen. Accordingly, ^129Xe taken up in the latter portion of the breath-hold cycle can decay to have only about 50% of the starting polarization (the polarization level at the initial portion of the breath hold cycle). Thus, generally stated, the average polarization of ^129Xe entering the pulmonary blood can be estimated to be at about 75% of the starting inhaled polarization value. Taking these effects into account, the delivery to the brain of the inhaled ^129Xe can be estimated as about 1.4 cubic centimeters of the inhaled one-liter dose of ^129Xe polarized to the same level as the inhaled gas (0.75×0.37×5 cc's). […] Nonetheless, at least one researcher has made coarse images of ^129Xe in rat brains, but this inhalation administration delivery required large quantities of ^129Xe to be inhaled over a relatively long period of time. […] Unfortunately, the extended inhalation time period and/or associated large quantity dosage of the gas may not be desirable for certain clinical applications.

[10] = Inhalation (breath-hold) delivery of hyperpolarized 129Xe: uptake and delivery to the brain; assay type: in vivo, human
Description: In addition, due to the high solubility of ^129Xe in blood and tissues, vascular and tissue imaging using inhaled hyperpolarized ^129Xe has also been proposed. Generally described, during inhalation delivery, a quantity of hyperpolarized ^129Xe is inhaled by a subject (a subject breathes in the ^129Xe gas) and the subject then holds his or her breath for a short period of time, i.e., a “breath-hold” delivery. This inhaled ^129Xe gas volume then exits the lung space and is generally taken up by the pulmonary vessels and associated blood or pulmonary vasculature at a rate of approximately 0.3% per second. For example, for an inhaled quantity of about 1 liter of hyperpolarized ^129Xe, an estimated uptake is about 3 cubic centimeters per second or a total quantity of about 40 cubic centimeters of ^129Xe over about a 15 second breath-hold period. Accordingly, it has been noted that such uptake can be used to generate images of pulnonary vasculature or even organ systems more distant from the lungs. See co-pending and co-assigned U.S. patent application Ser. No. 09/271,476 to Driehuys et al, entitled Methods for Imaging Pulmonary and Cardiac Vasculature and Evaluating Blood Flow Using Dissolved Polarized ^129Xe. Although primarily directed to inhalation delivery, this application also proposes injection of ^129Xe to replace conventional radioactive tracers in perfusion imaging methods. The contents of this application are hereby incorporated by reference as if recited in full herein.
Many researchers are also interested in the possibility of using inhaled ^129Xe for imaging white matter perfusion in the brain, renal perfusion, and the like. While the inhaled delivery ^129Xe methods are suitable, and indeed, preferable, for many MRI applications for several reasons, such as the non-invasive characteristics attendant with such a delivery to a human subject, it may not be the most efficient method to deliver a sufficiently large dose to more distant (away from the pulmonary vasculature which is proximate to the lungs) target areas of interest. In addition, due to the dilution of the inhaled ^129Xe along the perfusion delivery path, relatively large quantities of the hyperpolarized ^129Xe are typically inhaled in order to deliver a small fraction of the gas to the more distal target sites or organ systems. For example, the brain typically receives only about 13% of the total blood flow in the human body. Thus, the estimated 40 cubic centimeter quantity of hyperpolarized ^129Xe taken up into the pulmonary vessels from the 1-liter inhalation dose can be reduced to only about 5 cubic centimeters by the time it reaches the brain.
Further, the hyperpolarized state of the gas is sensitive and can decay relatively quickly due to a number of relaxation mechanisms. Indeed, the relaxation time (generally represented by a decay constant “T1”) of the ^129Xe in the blood, absent other external depolarizing factors, is estimated at T1=4.0 seconds for venous blood and T1=6.4 s for arterial blood at a magnetic field strength of about 1.5 Tesla. See Wolber et al., Spin-lattice relaxation of laser-polarized xenon in human blood, 96 Proc. Natl. Acad. Sci. USA, pp. 3664-3669 (March 1999). (The more oxygenated arterial blood provides increased polarization life over the relatively de-oxygenated venous blood). […]

[Xe] [Xe, xenon]
Diffusion coefficient in H2O [1]: about 1.9×10^−5 cm^2/s
Solubility ratio of xenon gas to nitrogen gas in blood ([2]; 0.167/[…], air approximated as nitrogen): ~11
Solubility relative to air ([2]; in blood, compared with air): about 10 times
Time for a 30 μm radius bubble to dissipate ([3]; 30 μm radius bubble): about 20 seconds
Bubble dissipation rate (dr/dt) ([3]; estimated from solubility ratio to air in blood): −1.5 μm/s

[3He] [^3He, reference compound]
ψ (relaxivity of GE180 glass for the gas) [4]: 8.1e-06 cm/s
D (diffusion coefficient of the gas) [5]: 2.05 cm^2/s

C [methane]
Diffusion coefficient in H2O ([1]; exponent shared with the following value): 2 ×10^−5 cm^2/s

[129Xe] [^129Xe]
Relaxation time T1 in arterial blood ([6]; arterial blood, about 1.5 Tesla): 6.4 s
Relaxation time in the lung ([6]; in the lung, presence of paramagnetic oxygen): 20 to 25 s
Relaxation time T1 in venous blood ([6]; venous blood, about 1.5 Tesla): 4.0 s
ψ (relaxivity of GE180 glass for the gas) [4]: 0.00017 cm/s
Relaxivity of high purity aluminum for 129Xe ([4]; high purity aluminum surface): about 0.00225 cm/min
Rate of uptake of inhaled gas by pulmonary vessels and blood [7]: approximately 0.3 % per second
Survival of the animal ([8]; about 3 cc gas injected into vein of rabbit): survived
Phase of the injected gas in the bloodstream during acquisition ([8]; about 3 cc into vein of rabbit, about 8 seconds): remained substantially in the gas phase
T1 of the gas in the blood ([8]; gas phase in the bloodstream, rabbit): at least 20 seconds
D (diffusion coefficient of the gas) [5]: 0.065 cm^2/s
Polarization remaining relative to original value after transit to the brain ([9]; about 5 second transit time from pulmonary vessels to brain): about 37%
Average polarization of 129Xe entering the pulmonary blood, of starting inhaled polarization ([9]; inhalation, breath-hold): about 75%
Polarization of 129Xe taken up in the latter portion of the breath-hold cycle, of starting polarization ([9]; latter portion of breath-hold): about 50%
Bubble dissipation rate relative to air in blood ([3]; in blood, faster than air): about 11 times
Quantity by the time it reaches the brain ([10]; from 40 cc taken up of 1-liter inhalation dose, brain receives about 13% of blood flow): about 5 cubic centimeters
Quantity delivered to remote target (brain) as fraction of inhaled 129Xe ([10]; inhalation): about 0.14%
Total quantity taken up ([10]; inhaled about 1 liter, about 15 second breath-hold): about 40 cubic centimeters
Delivery to the brain, as 129Xe polarized to the same level as the inhaled gas ([10]; inhaled one-liter dose (0.75×0.37×5 cc's)): about 1.4 cubic centimeters
Estimated uptake ([10]; inhaled quantity about 1 liter): about 3 cubic centimeters per second

O [water]
Diffusion coefficient in H2O [1]: 2.3×10^−5 cm^2/s
